# Measurements reported in patent publication US4328214A, “Cyclopeptides and pharmaceutical preparations thereof and also processes for their manufacture” (Ciba-Geigy Corporation, priority 1979, dated 1982).
# Test system: insulin and glucagon release
# Test: determination of insulin and glucagon release using the isolated perfused pancreas of a rat
# Settings: multiple of the reference's inhibitory effect
substance,measurement,value
[D-Trp^8 ; β-(1-naphthyl)-Gaba^12 ]-cyclosomatostatin(5-12)-octapeptide [formula ID diastereoisomeric mixture],"inhibitory effect relative to [D-Trp^8 ; Gaba^12 ]-cyclosomatostatin(5-12)-octapeptide (formula M, p=1)",approximately 10 times
